Data reported in patent publication US5468758A, “Crystalline forms of endo-2,3-dihydro-N-(8-methyl)-8-azabicyclo[3.2.1]oct-3-yl)-2-oxo-1H-benz imidazole-1-carboxamides” (Boehringer Ingelheim Italia S.p.A., priority 1992, dated 1995).
Where a name gives a salt, the structure may show the parent alone.

What was measured:
Assay type in all cases: physicochemical
[1] = Moisture sorption/desorption studies (hygrostat, storage at different temperatures and relative humidity); settings: for water content (Table V): 11.2% RH, % on the weight of compound 1a
Description: The determination of the sorption isotherms was carried out in a hygrostat.
At suitable intervals, the sample was weighed by means of a sample balance. The atmosphere in the hygrostat and therefore around the sample of compound 1a (1b) and 2a (2b) was conditioned and kept by a saturated solutions of a suitable salt:
Na Cl saturated solution 75.3% RH/25° C. 74.8% RH/37° C.
KNO3 saturated solution 93.7% RH/25° C. 90.0% RH/37° C.
At the end of the experiment, after completing the hysteresis, that is the adsorption--desorption cycle of humidity, the compound was assayed for the title and degradation products by TLC and HPLC, the physical state by DSC and water content by TGA.

[2] = Water loss on desiccation under vacuum; settings: between room temperature and 60° C. under vacuum, most preferably 40° C., 0.1 mm Hg, 24 hours; in words
Description: Compounds 2a and 2b may be prepared by dissolving the compounds 1a and 1b, as free base, in a hot aqueous solvent, preferably a hot aqueous alkanol, by adding the required amount of gaseous hydrogen chloride, filtering the resulting solution and letting it cool to room temperature. In a preferred embodiment of the process according to the invention, compound 2a is prepared by using, as an hot aqueous alkanol, hot 85% aqueous ethanol. The crystals of compound 2a may be collected by vacuum filtration and are washed with a small amount of aqueous ethanol. In a preferred embodiment of the process according to the invention, compound 2b is prepared by using, as an hot aqueous alkanol, hot 95% aqueous isopropanol. The crystals of compound 2b may be collected by vacuum filtration and are washed with a small amount of aqueous isopropanol. […] Water content may be measured by usual techniques such as the Karl Fischer test. Alternatively, compounds 2a and 2b may be conveniently prepared by dissolving the anhydrous form of compounds 1a and 1b, as hydrochloride, in hot aqueous ethanol, preferably 85% ethanol (respectively in hot aqueous isopropanol, preferably 95% isopropanol) and allowing to cool the solution at room temperature; crystals of compound 2 a (respectively 2b), separated from the cooled solution, are collected by vacuum filtration and manipulated as previously described. […]

[3] = Long-term real time stability tests in tablets and capsules; settings: for % degradation: tablets and capsules in PVC/PVDC blister with aluminium foil, hydrochloride monohydrate
From the text: (§1) Drug stability in these final compositions may be measured in accelerated stability tests or in long term real time stability tests. In accelerated stability tests, the above pharmaceutical compositions are exposed at high temperatures at different degrees of relative humidity for a period of time. Such tests are considered to be indicative of the stability of the composition at normal conditions. In long term real time stability studies the final compositions are exposed to normal conditions of storage at ambient temperatures at different degrees of relative humidity.
Tablets and capsules are packaged in PVC/PVDC blister with aluminium foil

[4] = Accelerated stability tests in tablets and capsules; settings: for % degradation: tablets and capsules in PVC/PVDC blister with aluminium foil, hydrochloride monohydrate
From the text: as §1
(*)according to H. Leven Berger Pharm. Act. Helv. 50 (1975) 88-91 it is
equivalent to 2 years storage at room temperature. Tablets and capsules
are packaged in PVC/PVDC blister with aluminium foil.
(*)according to "Guidelines for stability studies for Human Drugs and
Biologics" (1987) (USA/FDA) it is equivalent to 2 years at room
temperature. Tablets and capsules are packaged in PVC/PVDC blister with […]

[5] = Milling studies (FRITSCH Pulverisette 14 Rotor Speed Mill)
Description: The milling process was performed by the FRITSCH Pulverisette 14 Rotor Speed Mill supplied with circular sieve stainless steel with trapezoidal 0.080 mm diameter openings. The samples were passed through the mill twice at 20.000 rpm motor speed. The sample is assayed for title and degradation products by TLC and HPLC, physical state by DSC, water content by TGA, particle size distribution by Mercury Instrusion Porosimetry. The mi 11ed compounds are formulated in capsules and tablets at very low dose level (0.5 mg) by direct mixing and direct compression manufacturing method, respectively.

[6] = Moisture content during tablet manufacturing (mixing and tableting); settings: hydrochloride monohydrate; for Moisture content: % on the weight of compound 1a
From the text: As a consequence, storage of compound 2a may be effected in normal conditions and no particular precautions are needed to avoid exposure to moisture. The titer of compound 2a, when it is stored in normal conditions, is therefore maintained at difference with compound 1a which, in the same conditions, may show different titles according to the water content. The hygroscopicity may also influence the drug title immediately after the manufacturing of tablets. In fact during the process of manufacturing the drug exposed at normal ambient conditions where it can take up moisture.

- water content in conditions of extreme dryness ([1]; 11 RH, 37° C., in words): not affected
- water content (Table V) ([1]; 37° C., 2 h): 5.32%
- water content (Table V) ([1]; 37° C., 4 h): 5.31%
- water content (Table V) ([1]; 37° C., 6 h): 5.31%
- water content (Table V) ([1]; 37° C., 21 days): 5.29%
- water content (Table V) ([1]; 37° C., time 0): 5.26%
- water content (Table III) ([1]; 37° C., 75% RH, 2 h, hydrochloride monohydrate): 5.8%
- water content (Table III) ([1]; 37° C., 75% RH, 4 h, hydrochloride monohydrate): 5.75%
- water content (Table III) ([1]; 37° C., 75% RH, 6 h, hydrochloride monohydrate): 5.79%
- water content (Table III) ([1]; 37° C., 75% RH, 1 d, hydrochloride monohydrate): 5.75%
- water content (Table III) ([1]; 37° C., 75% RH, 5 d, hydrochloride monohydrate): 5.8%
- water content (Table III) ([1]; 37° C., 75% RH, 9 d, hydrochloride monohydrate): 5.76%
- water content (Table III) ([1]; 37° C., 75% RH, 15 d, hydrochloride monohydrate): 5.8%
- water content (Table III) ([1]; 37° C., 94% RH, 2 h, hydrochloride monohydrate): 5.49%
- water content (Table III) ([1]; 37° C., 94% RH, 4 h, hydrochloride monohydrate): 5.47%
- water content (Table III) ([1]; 37° C., 94% RH, 6 h, hydrochloride monohydrate): 5.53%
- water content (Table III) ([1]; 37° C., 94% RH, 1 d, hydrochloride monohydrate): 5.5%
- water content (Table III) ([1]; 37° C., 94% RH, 5 d, hydrochloride monohydrate): 5.49%
- water content (Table III) ([1]; 37° C., 94% RH, 9 d, hydrochloride monohydrate): 5.48%
- water content (Table III) ([1]; 37° C., 94% RH, 15 d, hydrochloride monohydrate): 5.48%
- water content (Table III) ([1]; Room Temperature, 75% RH, 2 h, hydrochloride monohydrate): 5.46%
- water content (Table III) ([1]; Room Temperature, 75% RH, 4 h, hydrochloride monohydrate): 5.43%
- water content (Table III) ([1]; Room Temperature, 75% RH, 6 h, hydrochloride monohydrate): 5.37%
- water content (Table III) ([1]; Room Temperature, 75% RH, 1 d, hydrochloride monohydrate): 5.41%
- water content (Table III) ([1]; Room Temperature, 75% RH, 4 d, hydrochloride monohydrate): 5.42%
- water content (Table III) ([1]; Room Temperature, 75% RH, 8 d, hydrochloride monohydrate): 5.36%
- water content (Table III) ([1]; Room Temperature, 75% RH, 20 d, hydrochloride monohydrate): 5.41%
- water content (Table III) ([1]; Room Temperature, 94% RH, 2 h, hydrochloride monohydrate): 5.49%
- water content (Table III) ([1]; Room Temperature, 94% RH, 4 h, hydrochloride monohydrate): 5.53%
- water content (Table III) ([1]; Room Temperature, 94% RH, 6 h, hydrochloride monohydrate): 5.51%
- water content (Table III) ([1]; Room Temperature, 94% RH, 1 d, hydrochloride monohydrate): 5.49%
- water content (Table III) ([1]; Room Temperature, 94% RH, 4 d, hydrochloride monohydrate): 5.44%
- water content (Table III) ([1]; Room Temperature, 94% RH, 8 d, hydrochloride monohydrate): 5.48%
- water content (Table III) ([1]; Room Temperature, 94% RH, 20 d, hydrochloride monohydrate): 5.49%
- stability in condition of storage ([1]; different temperatures and relative humidity, in words): stable
- moisture absorption ([1]; different temperatures and relative humidity, in words, hydrochloride monohydrate): do not absorb moisture
- % degradation ([3]; 3 months/40° C., 129600 min): 0.4%
- % degradation ([3]; 6 months/30° C.-70% RH, 259200 min): 0.1%
- % degradation ([3]; 6 months/40° C., 259200 min): 0.6%
- stability in tablets and capsules ([3]; long term real time tests, in comparison with compounds 1a and 1b, in words): better stability
- % degradation ([4]; 1 month/55° C., 43200 min): 0.5%
- % degradation ([4]; 3 months/40° C.-75% RH, 129600 min): 0.5%
- % degradation ([4]; 3 months/55° C., 129600 min): 1.6%
- % degradation ([4]; 6 months/40° C.-75% RH, 259200 min): 1.0%
- stability in tablets and capsules ([4]; accelerated tests, in comparison with compounds 1a and 1b, in words): better stability
- particle size reduction (milling efficiency) ([5]; Mercury Porosimetry Analysis, in words): same rank order
- stability to milling ([5]; in words, in comparison with the anhydrous form): unexpected better stability to milling
- percentage of degradation products after milling ([5]; rotor speed of 20,000 rpm, hydrochloride monohydrate): 0.0%
- Moisture content ([6]; Final (b), tableting): 4.90%
- Moisture content ([6]; Intermediate (a), mixing): 4.90%
- Moisture content ([6]; Start): 4.90%
- water content during manufacturing ([6]; mixing (a) and tableting (b) phases, in words): stable water content
SMILES: CN1C2CCC1CC(NC(=O)n1c(=O)[nH]c3ccccc31)C2 (stereo not drawn) [Compound 2a, Endo-2,3-dihydro-N-(8-methyl-8-azabicyclo[3.2.1]oct-3-yl)-2-oxo-1H-benzimidazole-1-carboxamide, hydrochloride monohydrate]
- loss of water content on desiccation [2]: without any appreciable loss of water content
